From patent publication US12077503B2, “Substituted cyclic amides and their use as herbicides” (FMC CORPORATION, priority 2015, dated 2024) come the findings set out here.

What all share (type): in vivo
The test system of test [1] is Kochia (Kochia scoparia). As to the kind of experiment: Test A preemergence. Conditions: Bassia scoparia, pre-emergence, 240 h; for pest or weed control at 125 g/ha: 125 g ai/ha, preemergence, 0 to 100 scale where 0 is no effect and 100 is complete control, read-out: Kochia plant response rating; for pest or weed control at 500 g/ha: 500 g ai/ha, Preemergence, visual injury vs untreated controls after approximately 10 d, read-out: Kochia plant response rating (0 to 100 scale where 0 is no effect and 100 is complete control). In outline: (§1)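 Seeded soil received test chemicals as a preemergence directed spray, and seedlings at one to two leaves, 2–10 cm tall, received them postemergence, in a non-phytotoxic, surfactant-containing solvent mixture. Pots were held in a greenhouse for approximately 10 d, then rated for injury from 0, no effect, to 100, complete control.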

Test [2] has as its system barnyardgrass (Echinochloa crus-galli). Nature of the test: Test A preemergence. Conditions: Echinochloa crus-galli, pre-emergence, 240 h; for pest or weed control at 125 g/ha: 125 g ai/ha, preemergence, 0 to 100 scale where 0 is no effect and 100 is complete control, read-out: Barnyardgrass plant response rating; for pest or weed control at 500 g/ha: 500 g ai/ha, Preemergence, visual injury vs untreated controls after approximately 10 d, read-out: Barnyardgrass plant response rating (0 to 100 scale where 0 is no effect and 100 is complete control). In outline: as §1

Test [3] concerns giant foxtail (Setaria faberii). Nature of the test: Test A preemergence. Conditions: Setaria faberi, pre-emergence, 240 h; for pest or weed control at 125 g/ha: 125 g ai/ha, preemergence, 0 to 100 scale where 0 is no effect and 100 is complete control, read-out: Foxtail, Giant plant response rating; for pest or weed control at 500 g/ha: 500 g ai/ha, Preemergence, visual injury vs untreated controls after approximately 10 d, read-out: Foxtail, Giant plant response rating (0 to 100 scale where 0 is no effect and 100 is complete control). A digest of the protocol: as §1

In test [4] the test system is pigweed (Amaranthus retroflexus). Nature of the test: Test A preemergence. Conditions: Amaranthus retroflexus, pre-emergence, 240 h; for pest or weed control at 125 g/ha: 125 g ai/ha, preemergence, 0 to 100 scale where 0 is no effect and 100 is complete control, read-out: Pigweed plant response rating; for pest or weed control at 500 g/ha: 500 g ai/ha, Preemergence, visual injury vs untreated controls after approximately 10 d, read-out: Pigweed plant response rating (0 to 100 scale where 0 is no effect and 100 is complete control).

The subject of test [5] is ragweed (common ragweed, Ambrosia elatior). As to the kind of experiment: Test A preemergence. As to conditions: Ambrosia artemisiifolia, pre-emergence, 240 h; for pest or weed control at 125 g/ha: 125 g ai/ha, preemergence, 0 to 100 scale where 0 is no effect and 100 is complete control, read-out: Ragweed plant response rating; for pest or weed control at 500 g/ha: 500 g ai/ha, Preemergence, visual injury vs untreated controls after approximately 10 d, read-out: Ragweed plant response rating (0 to 100 scale where 0 is no effect and 100 is complete control). A digest of the protocol: as §1

For test [6], the system named is ryegrass, Italian (Italian ryegrass, Lolium multiflorum). Nature of the test: Test A preemergence. As to conditions: Lolium multiflorum, pre-emergence, 240 h; for pest or weed control at 125 g/ha: 125 g ai/ha, preemergence, 0 to 100 scale where 0 is no effect and 100 is complete control, read-out: Ryegrass, Italian plant response rating; for pest or weed control at 500 g/ha: 500 g ai/ha, Preemergence, visual injury vs untreated controls after approximately 10 d, read-out: Ryegrass, Italian plant response rating (0 to 100 scale where 0 is no effect and 100 is complete control). In outline: as §1

In test [7] the test system is Galium (catchweed bedstraw, Galium aparine). As to the kind of experiment: Test A postemergence. As to conditions: Galium, post-emergence, 240 h, 125 g ai/ha, postemergence, visual injury rating after approximately 10 d; read-out: Galium plant response rating (0 to 100 scale, 0 no effect, 100 complete control). A digest of the protocol:
as §1

The test system of test [8] is Kochia (Kochia scoparia). As to the kind of experiment: Test A postemergence. As to conditions: Bassia scoparia, post-emergence, 240 h, 125 g ai/ha, postemergence, visual injury rating after approximately 10 d; read-out: Kochia plant response rating (0 to 100 scale, 0 no effect, 100 complete control). In outline:
as §1

The test system of test [9] is barnyardgrass (Echinochloa crus-galli). Nature of the test: Test A postemergence. Conditions: Echinochloa crus-galli, post-emergence, 240 h, 125 g ai/ha, postemergence, visual injury rating after approximately 10 d; read-out: Barnyardgrass plant response rating (0 to 100 scale, 0 no effect, 100 complete control). In outline: as §1
In a further test the test system is corn (Zea mays). As to the kind of experiment: Test A postemergence. As to conditions: Zea mays, post-emergence, 240 h, 125 g ai/ha, postemergence, visual injury rating after approximately 10 d; read-out: Corn plant response rating (0 to 100 scale, 0 no effect, 100 complete control). A digest of the protocol: as §1
In test [10] the test system is giant foxtail (Setaria faberii). Nature of the test: Test A postemergence. Conditions: Setaria faberi, post-emergence, 240 h, 125 g ai/ha, postemergence, visual injury rating after approximately 10 d; read-out: Foxtail, Giant plant response rating (0 to 100 scale, 0 no effect, 100 complete control). A digest of the protocol: as §1
For test [11], the system named is ragweed (common ragweed, Ambrosia elatior). As to the kind of experiment: Test A postemergence. As to conditions: Ambrosia artemisiifolia, post-emergence, 240 h, 125 g ai/ha, postemergence, visual injury rating after approximately 10 d; read-out: Ragweed plant response rating (0 to 100 scale, 0 no effect, 100 complete control). In outline:
as §1

Test [12] concerns ryegrass, Italian (Italian ryegrass, Lolium multiflorum). Nature of the test: Test A postemergence. As to conditions: Lolium multiflorum, post-emergence, 240 h, 125 g ai/ha, postemergence, visual injury rating after approximately 10 d; read-out: Ryegrass, Italian plant response rating (0 to 100 scale, 0 no effect, 100 complete control). A digest of the protocol:
as §1

Test [13] concerns wheat (Triticum aestivum). Nature of the test: Test A postemergence. Conditions: Triticum aestivum, post-emergence, 240 h, 125 g ai/ha, postemergence, visual injury rating after approximately 10 d; read-out: Wheat plant response rating (0 to 100 scale, 0 no effect, 100 complete control). A digest of the protocol: as §1

Take `O=C1NC[C@H](c2cc(F)c(C(F)(F)F)c(F)c2)[C@H]1C(=O)Nc1cccc(F)c1F` [Compound 838]: the pest or weed control at 125 g/ha in the test on Kochia (Kochia scoparia) [1] worked out at 70%; in test [2], 90%; in test [3] it was 90%; in test [4], 80%; in test [5], 40%; in [6], 20%. In addition, the pest or weed control at 125 g/ha in test [7] was 50%; with Kochia (Kochia scoparia) [8] it was 70%; in test [9], 90%; in test [10], 90%; in [11], 40%; in [12], 30%. In addition, the pest or weed control at 500 g/ha turned out to be 80% in the test on Kochia (Kochia scoparia) [1]; 90% in test [2]; 90% in test [3]; 90% in test [4]; 60% in test [5]; 60% in test [6]. Moreover, the plant injury at 125 g/ha in the test on corn (Zea mays) came out at 70%; in test [13], 30%.
`O=C1NC[C@H](c2cc(F)c(C(F)(F)F)c(F)c2)[C@H]1C(=O)Nc1ccccc1F` [Compound 837]: the pest or weed control at 125 g/ha with Kochia (Kochia scoparia) [1] turned out to be 90%; in test [2] it was 90%; in [3], 90%; in test [4] it was 20%; in [5], 70%; in test [6], 50%. In addition, the pest or weed control at 125 g/ha came to 50% in test [7]; 20% in the test on Kochia (Kochia scoparia) [8]; 90% in [9]; 90% in test [10]; 10% in test [11]; 50% in test [12]. The pest or weed control at 500 g/ha was found to be 90% with Kochia (Kochia scoparia) [1]; 90% in test [2]; 90% in [3]; 80% in [4]; 70% in test [5]; 70% in [6]. For the same molecule, the results for the plant injury at 125 g/ha (in the test with corn (Zea mays); in test [13]) were 60% and 0%, respectively.
